The test system of data set [1] is platelet aggregation. The data set is described as follows: Inhibition of platelet aggregation in rabbit platelet-rich plasma (Born's turbimetry). It counts as cell-based. The note with it: Oryctolagus cuniculus. Here is the method: Using a syringe containing 3.8% sodium citrate solution (1 volume), 9 volumes of blood is drawn from the carotid artery of a rabbit. Said blood is centrifuged to give platelet-rich plasma (PRP: 7×10^5 /μl).
In a cuvette is placed 250 ul of said PRP, followed by incubation in a thermostat at 37° C. for 2 min. Then, 20 μl of physiological saline buffer solution of a 2,4-pentadienoic acid derivative to be tested is added, and the mixture is incubated for 3 min. A platelet-aggregation inducer, an arachidonic acid solution, a collagen solution or an ADP solution is then added, and platelet aggregation is measured by the Born's turbimetry (which is described, for example, in Journal of Physiology, vol. 168, p. 178 (1968)). 50% Inhibitory concentration of the platelet aggregation caused by arachidonic acid (60 μmol), collagen (10 μg/ml) or ADP (5 μmol) is shown in Table 5 in comparison with prostaglandin I2, aspirin or dipyridamol.
50% Inhibitory concentration as indicated in Table 5 means the concentration of a 2,4-pentadienoic acid derivative needed for inhibiting the platelet aggregation by 50% by the introduction of said 2,4-pentadienoic acid derivative, taking the platelet aggregation in the absence of 2,4-pentadienoic acid derivatives of the invention as 100%.

For data set [2] the following is noted: unstable vinylether group in the molecule; cited from earlier work.
Where [3] appears, read: aggregation induced by ADP (5 μmol), rabbit PRP, 37° C., 3 min preincubation, read-out: Antiplatelet activity, 50% Inhibitory concentration, ADP.
Where [4] appears, read: aggregation induced by arachidonic acid (60 μmol), rabbit PRP, 37° C., 3 min preincubation, read-out: Antiplatelet activity, 50% Inhibitory concentration, Arachidonic acid.
Where [5] appears, read: aggregation induced by collagen (10 μg/ml), rabbit PRP, 37° C., 3 min preincubation, read-out: Antiplatelet activity, 50% Inhibitory concentration, Collagen.

Like-named read-outs stand apart in the source and are kept apart here.

Regarding `CCCCC[C@H](O)/C=C/[C@@H]1[C@H]2CC(/C=C/C=C/C(=O)O)=C[C@H]2C[C@H]1O` [Example 1, 3-(4-carboxy-trans, trans-1,3-butadienyl)-6-exo-(3α-hydroxy-trans-1-octenyl)-7-endo-hydroxybicyclo[3.3.0]oct-2-ene], the figures for the IC50 in data set [1] (setting [3]), in data set [1] (setting [4]) and in data set [1] (setting [5]) were 0.52 µM, 0.47 µM and 0.32 µM, respectively.

`O=C(O)/C=C/C=C/C1=C[C@H]2C[C@@H](O)[C@H](/C=C/[C@@H](O)C3CCCC3)[C@H]2C1` [Example 4]: the IC50 was 0.39 µM in data set [1] (setting [3]), 0.29 µM in data set [1] (setting [4]) and 0.23 µM in data set [1] (setting [5]).

Consider `CCCCC[C@H](O)/C=C/[C@@H]1[C@H]2C/C(=C/CCCC(=O)O)O[C@H]2C[C@H]1O` [prostaglandin I2, reference compound], for which the IC50 in data set [1] (setting [3]) came to 0.38 µM; in data set [1] (setting [4]), 0.25 µM; in data set [1] (setting [5]) it was 0.22 µM. Further, the “half life in the living body” value in data set [2] is “short”.

`CC(=O)Oc1ccccc1C(=O)O` [aspirin, reference compound]: the IC50 is ≥ 1000 µM in data set [1] (read-out: Antiplatelet activity, 50% Inhibitory concentration, ADP); 17 µM in data set [1] (read-out: Antiplatelet activity, 50% Inhibitory concentration, Arachidonic acid); 200 µM in data set [1] (read-out: Antiplatelet activity, 50% Inhibitory concentration, Collagen).

As for `O=C(O)/C=C/C=C/CC1=C[C@H]2C[C@@H](O)[C@H](/C=C/[C@@H](O)C3CCCC3)[C@H]2C1` [Example 9], the IC50 amounted to 1.4 µM in data set [1] (setting [3]), 1.8 µM in data set [1] (setting [4]) and 1.1 µM in data set [1] (setting [5]).

For `OCCN(CCO)c1nc(N2CCCCC2)c2nc(N(CCO)CCO)nc(N3CCCCC3)c2n1` [dipyridamol, reference compound], the IC50 is 470 µM in data set [1] (setting [3]) and ≥ 1000 µM in data set [1] (setting [4]).

Consider `CCCCC[C@H](O)/C=C/[C@@H]1[C@H]2CC(C/C=C/C=C/C(=O)O)=C[C@H]2C[C@H]1O` [Example 6, 3-(5-carboxy-trans, trans-2,4-pentadienyl)-6-exo-(3α-hydroxy-trans-1-octenyl)-7-endo-hydroxybicyclo[3.3.0]oct-2-ene], for which the values for the IC50 in data set [1] (setting [3]), in data set [1] (setting [4]) and in data set [1] (setting [5]) were 0.7 µM, 0.82 µM and 0.5 µM, respectively.
